# How the values were obtained:
# MV4;11 (MLL-AF4) cells = assay: In vitro anti-proliferative assay, MV4;11; assay type: cell-based, human; details: up to 14 days
# Experimental: (§1) In Vitro Anti-Proliferative Assay. The potency and selectivity of the anti-proliferative activity of the compounds of the present invention were assessed using a panel of MLL-rearranged and non-MLL-rearranged human leukemia cell lines. The MLL-rearranged panel included cell lines derived from ALL, AML and biphenotypic leukemias harboring MLL-AF4, MLL-AF9 or MLL-ENL fusions. These cell lines recruit DOT1L.
# (§2) Exponentially growing cells were plated, in triplicate, in 96-well plates at a density of 3×10^4 cells/well in a final volume of 150 μl. […] Anti-proliferative activity was determined by cell viability measurements every 3-4 days for up to 14 days.
# MOLM-13 (MLL-AF9) cells = assay: In vitro anti-proliferative assay, MOLM-13; assay type: cell-based, human; details: up to 14 days
# Experimental: as §1, §2
# KOPN-8 (MLL-ENL) cells = assay: In vitro anti-proliferative assay, KOPN-8; assay type: cell-based, human; details: up to 14 days
# Experimental: as §1, §2
# EOL-1 cells (MLL-PTD) = assay: In vitro anti-proliferative assay, EOL-1; assay type: cell-based; details: Homo sapiens, EOL1, 336 h; EOL-1 (MLL-PTD), up to 14 days
# Experimental: as §1, §2
# [1] = system: Jurkat cells (non-MLL-rearranged); assay: In vitro anti-proliferative assay, Jurkat; assay type: cell-based, human; details: up to 14 days
# Experimental: as §1, §2
# [2] = system: HL-60 cells (non-MLL-rearranged); assay: In vitro anti-proliferative assay, HL-60; assay type: cell-based, human; details: HL-60, up to 14 days
# Experimental: as §1, §2
# MV4-11 xenograft tumors = assay: In vivo anti-proliferative assay, mouse xenograft model of MLL-rearranged leukemia; details: 21 days
# Experimental: In Vivo Anti-Proliferative Assay. The in vivo anti-tumor activity of the compounds of the present invention were assessed in a mouse xenograft model of MLL-rearranged leukemia. Four groups of 20 (Groups 1, 3, 4 and 5), and one group of 8 (Group 2) female nude mice (average weight of 0.023 kg) bearing MV4-11 xenograft tumors of sizes ranging from 80-120 mm^3 were implanted subcutaneously with minipumps (Alzet Model 2001). Group 1 received vehicle only from the pump. Group 2 received vehicle only from the pump plus ip injections tid (8 hours apart) of vehicle. […] Pumps were designed to last for 7 days and were exchanged twice to give total infusion duration of 21 days exposure. […] Blood samples were taken from Group 3 on days 7 and 14 at the following time points (3 animals per time point): 5 minutes pre-ip dose, and 15 min, 30 min, 1, 2, and 4 hours post ip dose. On day 21 three hours after the last ip injection, a single blood sample was taken from Group 3. Tumor size was measured every 4 days. After 21 days the study was terminated, and mean TGI calculated.
structure (smiles),measurement,setting,value
"CC(C)N(C[C@H]1O[C@@H](n2cnc3c(N)ncnc32)[C@H](O)[C@@H]1O)[C@H]1C[C@@H](CCc2nc3cc(C(C)(C)C)ccc3[nH]2)C1 [Compound 2, (2R,3R,4S,5R)-2-(6-amino-9H-purin-9-yl)-5-((((1r,3S)-3-(2-(5-(tert-butyl)-1H-benzo[d]imidazol-2-yl)ethyl)cyclobutyl)(isopropyl)amino)methyl)tetrahydrofuran-3,4-diol]",anti-proliferative activity (IC50),MV4;11 (MLL-AF4) cells,potent nanomolar anti-proliferative activity
same,anti-proliferative activity (IC50),MOLM-13 (MLL-AF9) cells,potent nanomolar anti-proliferative activity
same,anti-proliferative activity (IC50),KOPN-8 (MLL-ENL) cells,potent nanomolar anti-proliferative activity
same,IC50,EOL-1 cells (MLL-PTD),11 nM
same,anti-proliferative activity,[1],no activity
same,anti-proliferative activity,[2],no activity
same,TGI compared to controls,"MV4-11 xenograft tumors; 56 mg/kg/day minipump, non-statistically significant",43%
same,TGI compared to controls,"MV4-11 xenograft tumors; 112 mg/kg/day minipump, non-statistically significant",38%
same,TGI compared to controls,"MV4-11 xenograft tumors; Group 3: 112 mg/kg/day minipump plus ip 20 mg/kg tid (172 mg/kg/day), statistically significant",> 70%

# Source: patent publication US11633420B2, “Method of treating leukemia” (Epizyme, Inc., priority 2012, dated 2023)
